In PubChem BioAssay AID256 (DTP/NCI, 2004):
Where “and” joins values, the source holds several entries; their conditions need not be identical. Equal values may be shown once. Inconclusive results and toxic doses are left out. Rule for the calls: active = survival T/C of 150% or more; inactive = T/C below 125% in these data.

Tested on: CD2F1 mice, L1210 leukemia ip, survival T/C
Assay: NCI In Vivo Anticancer Drug Screen. Data for tumor model L1210 Leukemia (intraperitoneal) in CD2F1 (CDF1) mice
Details: endpoint: mean survival time, higher = longer survival
How it was run: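 Ratio T/C, where T is the treated-group value and C the vehicle-dosed control value, from mice implanted with a transplantable tumor.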

[1] = dose: 100.0 mg/kg/injection, schedule: Q01DX009 (ip), vehicle: saline with Tween-80
[2] = dose: 100.0 mg/kg/injection, schedule: Q04DX003 (ip), vehicle: saline with Tween-80
[3] = dose: 200.0 mg/kg/injection, schedule: Q01DX009 (ip), vehicle: saline with Tween-80
[4] = dose: 200.0 mg/kg/injection, schedule: Q04DX003 (ip), vehicle: saline with Tween-80
[5] = dose: 400.0 mg/kg/injection, schedule: Q01DX009 (ip), vehicle: saline with Tween-80
[6] = dose: 400.0 mg/kg/injection, schedule: Q04DX003 (ip), vehicle: saline with Tween-80
[7] = dose: 50.0 mg/kg/injection, schedule: Q04DX003 (ip), vehicle: saline with Tween-80
[8] = dose: 100.0 mg/kg/injection, schedule: Q04DX003 (ip), vehicle: saline
[9] = dose: 200.0 mg/kg/injection, schedule: Q04DX003 (ip), vehicle: saline
[10] = dose: 12.5 mg/kg/injection, schedule: Q01DX001 (ip), vehicle: saline with Tween-80
[11] = dose: 25.0 mg/kg/injection, schedule: Q01DX001 (ip), vehicle: saline with Tween-80
[12] = dose: 25.0 mg/kg/injection, schedule: Q04DX003 (ip), vehicle: saline with Tween-80
[13] = dose: 100.0 mg/kg/injection, schedule: Q01DX001 (ip), vehicle: saline with Tween-80
[14] = dose: 200.0 mg/kg/injection, schedule: Q01DX001 (ip), vehicle: saline with Tween-80
[15] = dose: 400.0 mg/kg/injection, schedule: Q01DX001 (ip), vehicle: saline with Tween-80

Measured: T/C

Nc1cc(OCc2ccccc2)c2n[nH]nc2n1
inactive: dose: 25.0 mg/kg/injection, schedule: Q01DX005 (ip), vehicle: other 96 % of control | dose: 50.0 mg/kg/injection, schedule: Q01DX005 (ip), vehicle: other 92 % of control | dose: 200.0 mg/kg/injection, schedule: Q01DX005 (ip), vehicle: other 94 % of control | dose: 400.0 mg/kg/injection, schedule: Q01DX005 (ip), vehicle: other 105 % of control

Oc1ccccc1Cn1ccnc1
inactive: dose: 25.0 mg/kg/injection, schedule: Q01DX009 (ip), vehicle: saline 104 % of control | dose: 50.0 mg/kg/injection, schedule: Q01DX009 (ip), vehicle: saline 98 % of control | dose: 100.0 mg/kg/injection, schedule: Q01DX009 (ip), vehicle: saline 98 % of control and 103 % of control

CC(=O)NC(=O)NC(Cc1ccccc1)c1ccccc1 (stereo not drawn)
inactive: [1] 98 % of control | [2] 104 % of control | [3] 92 % of control | [4] 96 % of control | [5] 95 % of control | [6] 108 % of control

COc1cccc(/C=C/C(=O)O)c1OC
inactive: dose: 25.0 mg/kg/injection, schedule: Q01DX009 (ip), vehicle: water 88 % of control | dose: 50.0 mg/kg/injection, schedule: Q01DX009 (ip), vehicle: water 88 % of control | dose: 100.0 mg/kg/injection, schedule: Q01DX009 (ip), vehicle: water 101 % of control | dose: 200.0 mg/kg/injection, schedule: Q01DX009 (ip), vehicle: water 95 % of control | dose: 400.0 mg/kg/injection, schedule: Q01DX009 (ip), vehicle: water 95 % of control

O=C(O)C[N-]c1ccccc1.O=C(O)C[N-]c1ccccc1.[Ni+2]
inactive: dose: 25.0 mg/kg/injection, schedule: Q01DX009 (ip), vehicle: saline with Tween-80 95 % of control | [7] 107 % of control | [2] 106 % of control

O=[N+]([O-])/C=C/c1cc2ccccc2[nH]1
inactive: dose: 100.0 mg/kg/injection, schedule: Q04DX003 (ip), vehicle: acetone 94 % of control | dose: 200.0 mg/kg/injection, schedule: Q04DX003 (ip), vehicle: acetone 94 % of control | dose: 400.0 mg/kg/injection, schedule: Q04DX003 (ip), vehicle: acetone 105 % of control

COCC(=O)c1ccccc1
inactive: [1] 96 % of control | [3] 96 % of control | [5] 94 % of control

Nn1cnnc1
inactive: dose: 100.0 mg/kg/injection, schedule: Q01DX001 (ip), vehicle: saline 98 % of control | dose: 200.0 mg/kg/injection, schedule: Q01DX001 (ip), vehicle: saline 93 % of control

Cc1cc(C)c(C)c(S(=O)(=O)O)c1C
inactive: dose: 50.0 mg/kg/injection, schedule: Q01DX009 (ip), vehicle: saline with Tween-80 102 % of control | [1] 102 % of control | [2] 101 % of control | [4] 89 % of control

CCC1(CC)CO1
inactive: [1] 104 % of control | [8] 96 % of control | [3] 93 % of control | [9] 94 % of control | [5] 97 % of control | dose: 400.0 mg/kg/injection, schedule: Q04DX003 (ip), vehicle: saline 98 % of control

Oc1c(Cl)c(Cl)c(O)c(Cl)c1Cl
inactive: dose: 6.25 mg/kg/injection, schedule: Q01DX001 (ip), vehicle: saline with Tween-80 98 % of control | [10] 95 % of control | [11] 95 % of control

CC1=NCC[N-]C(C)(C)CC(C)=NCC[N-]C(C)(C)C1.[Ni+2].[O-][Cl+3]([O-])([O-])O
inactive: [8] 96 % of control | [9] 97 % of control

CCC(C)OP(=S)(S)OC(C)CC.[Zn+2] (stereo not drawn)
inactive: dose: 0.75 mg/kg/injection, schedule: Q01DX009 (ip), vehicle: saline with Tween-80 88 % of control and 90 % of control | dose: 1.5 mg/kg/injection, schedule: Q01DX009 (ip), vehicle: saline with Tween-80 103 % of control | dose: 3.0 mg/kg/injection, schedule: Q01DX009 (ip), vehicle: saline with Tween-80 88 % of control and 92 % of control | dose: 3.13 mg/kg/injection, schedule: Q01DX009 (ip), vehicle: saline with Tween-80 86 % of control and 88 % of control | dose: 6.25 mg/kg/injection, schedule: Q04DX003 (ip), vehicle: saline with Tween-80 93 % of control | [10] 101 % of control | dose: 12.5 mg/kg/injection, schedule: Q04DX003 (ip), vehicle: saline with Tween-80 95 % of control | [11] 100 % of control | dose: 25.0 mg/kg/injection, schedule: Q04DX002 (ip), vehicle: saline with Tween-80 94 % of control and 100 % of control | [12] 97 % of control | dose: 50.0 mg/kg/injection, schedule: Q04DX002 (ip), vehicle: saline with Tween-80 120 % of control and 94 % of control

O=c1[nH]cnc2c1ncn2CCCCCO
inactive: [13] 95 % of control | dose: 100.0 mg/kg/injection, schedule: Q04DX002 (ip), vehicle: saline with Tween-80 97 % of control | [14] 100 % of control | dose: 200.0 mg/kg/injection, schedule: Q04DX002 (ip), vehicle: saline with Tween-80 102 % of control | [15] 95 % of control | dose: 400.0 mg/kg/injection, schedule: Q04DX002 (ip), vehicle: saline with Tween-80 94 % of control

[N-]=[N+]=NC1=C(c2ccccc2)C(=O)C=C(c2ccccc2)C1=O
inactive: [12] 94 % of control | [7] 94 % of control | [2] 101 % of control and 102 % of control | [6] 101 % of control

Cc1ccc(S(=O)(=O)OCC2OCOC(C(O)CI)C2O)cc1 (stereo not drawn)
inactive: [13] 92 % of control | [14] 92 % of control | [15] 102 % of control
